In ChEMBL document CHEMBL1201862, “PubChem BioAssay data set” (2004):
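Values below derive from 48-hour exposures of cells grown in 96-well plates, with endpoints linearly interpolated between the two concentrations bracketing the appropriate inhibition level. At the GI50, growth is halved.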 The source made the active and inactive calls. Rule as the data show it: active = GI50 up to about 1.1 µM and inactive = higher.

How the values were obtained:
Assay in all cases: inhibition of tumour cell growth, NCI panel, 48 h
DLD-1 = tested on: DLD-1
DMS-273 = tested on: DMS-273
HOP-18 = tested on: HOP-18
KM-20L2 = tested on: KM-20L2
LXFL 529 = tested on: LXFL 529
M19-MEL = tested on: M19-MEL
RXF 631 = tested on: RXF 631
SNB-78 = tested on: SNB-78
XF498 = tested on: XF498

Structure (SMILES)	GI50 (DLD-1)	GI50 (DMS-273)	GI50 (HOP-18)	GI50 (KM-20L2)	GI50 (LXFL 529)	GI50 (M19-MEL)	GI50 (RXF 631)	GI50 (SNB-78)	GI50 (XF498)
C#CCC1(C(=O)OCC)C(=O)c2ccccc2N(C)C1=O (stereo not drawn)	> 100 µM (inactive)	> 100 µM (inactive)	> 100 µM (inactive)	> 100 µM (inactive)	> 100 µM (inactive)	> 100 µM (inactive)	> 100 µM (inactive)	> 100 µM (inactive)	26.7 µM (inactive)
Nc1nc(=O)[nH]c2c1cnn2C1CCCCO1 (stereo not drawn)	62.7 µM (inactive)	> 100 µM (inactive)	> 100 µM (inactive)	> 100 µM (inactive)	> 100 µM (inactive)		> 100 µM (inactive)	> 100 µM (inactive)	> 100 µM (inactive)
COc1ccc(/C=C/c2cc(OC)c(OCc3ccccc3)c(OC)c2)cc1	45.6 µM (inactive)	71.6 µM (inactive)		> 100 µM (inactive)	> 100 µM (inactive)	> 100 µM (inactive)	48.3 µM (inactive)	> 100 µM (inactive)	> 100 µM (inactive)
C/C(CCn1[nH]c(=O)ccc1=O)=N\NC(=O)C(=O)NN	> 100 µM (inactive)	> 100 µM (inactive)	> 100 µM (inactive)	> 100 µM (inactive)	> 100 µM (inactive)	> 100 µM (inactive)	> 100 µM (inactive)		> 100 µM (inactive)
COc1ccc2[nH]c3c(C)c4cc[n+](C)cc4c(C)c3c2c1	1.06 µM (active)	0.838 µM (active)	3.95 µM (inactive)	3.3 µM (inactive)		0.661 µM (active)		0.406 µM (active)	
Nc1nc(SCc2ccccc2Cl)c2[nH]cnc2n1	69 µM (inactive)	41 µM (inactive)		> 100 µM (inactive)	62.1 µM (inactive)	> 100 µM (inactive)		> 100 µM (inactive)	
COC(=O)c1ccccc1NC(=O)C(=O)CC(=O)CC(c1ccccc1)c1c(O)c2ccccc2oc1=O (stereo not drawn)	> 100 µM (inactive)			> 100 µM (inactive)		> 100 µM (inactive)	> 100 µM (inactive)		
CC(C)=CC(=O)Cc1nc2ccccc2[nH]c1=O	> 100 µM (inactive)	> 100 µM (inactive)	37 µM (inactive)	> 100 µM (inactive)	> 100 µM (inactive)	> 100 µM (inactive)	> 100 µM (inactive)	> 100 µM (inactive)	
CCOC(=O)C(=O)NCCCN1CCOCC1	> 100 µM (inactive)	> 100 µM (inactive)	> 100 µM (inactive)	> 100 µM (inactive)	> 100 µM (inactive)	> 100 µM (inactive)	> 100 µM (inactive)	> 100 µM (inactive)	> 100 µM (inactive)
O=[N+]([O-])c1ccc(COc2cccc3cccnc23)cc1	13.9 µM (inactive)	4.53 µM (inactive)	31.5 µM (inactive)	33.3 µM (inactive)	23.5 µM (inactive)	15.1 µM (inactive)	13.9 µM (inactive)	38.2 µM (inactive)	19.9 µM (inactive)
C=C=CC(NC(=O)c1ccccc1)(C(=O)O)C(F)(F)F (stereo not drawn)	> 100 µM (inactive)	> 100 µM (inactive)	> 100 µM (inactive)		> 100 µM (inactive)		> 100 µM (inactive)	> 100 µM (inactive)	> 100 µM (inactive)
C=CCc1cc(OC)c2c(c1)C(OC(C)=O)CC(c1ccc(OC)c(OC)c1)O2 (stereo not drawn)	> 100 µM (inactive)	> 100 µM (inactive)		> 100 µM (inactive)	> 100 µM (inactive)	> 100 µM (inactive)		> 100 µM (inactive)	
CCC(C)CN1C(=O)NC(Cc2ccccc2)C1=O (stereo not drawn)	> 100 µM (inactive)	> 100 µM (inactive)	0.119 µM (active)	> 100 µM (inactive)	> 100 µM (inactive)	> 100 µM (inactive)		> 100 µM (inactive)	> 100 µM (inactive)
C=C(N=[N+]=[N-])c1cn(C2CC(O)C(CO)O2)c(=O)[nH]c1=O (stereo not drawn)	> 100 µM (inactive)	> 100 µM (inactive)	> 100 µM (inactive)	> 100 µM (inactive)	> 100 µM (inactive)	> 100 µM (inactive)		> 100 µM (inactive)	> 100 µM (inactive)
O=C(O)[C@@H](NS(=O)(=O)c1ccc(F)cc1)c1ccccc1	> 100 µM (inactive)	> 100 µM (inactive)	> 100 µM (inactive)	> 100 µM (inactive)	> 100 µM (inactive)	> 100 µM (inactive)		> 100 µM (inactive)	> 100 µM (inactive)
Cc1c(/C=N/N(C)C)oc2c1cc(O)c1ncccc12	3.67 µM (inactive)	5.31 µM (inactive)	1.77 µM (inactive)	34.5 µM (inactive)	7.98 µM (inactive)				8.38 µM (inactive)
